# Experimental data as given in patent EP1137645B1, “ALPHA-METHYLBENZYL-CONTAINING THIOUREA INHIBITORS OF HERPES VIRUSES CONTAINING A […] GROUP” (Wyeth, priority 1998, dated 2000).
# Where two headings read alike, the source gives them in different places.
# Columns and labels:
# [1] = tested on: HCMV recombinant mutant virus whose genome contains the prokaryotic beta-glucuronidase gene; experiment: microbe, parasite or virus in culture; assay type: cell-based, human cytomegalovirus; conditions: for IC50: Human betaherpesvirus 5, Fibroblast
# Outline: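 Antiviral IC50 estimated from reduced reporter activity across compound amounts: lysates prepared 96 h after infection were tested with p-nitrophenyl- or methylumbelliferyl-glucuronide. Cells were human foreskin fibroblasts, infected alongside inhibitor with HCMV (e.g. RV145) expressing viral promoter-driven beta-glucuronidase.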
# HSV- I = experiment: HSV antiviral (ELISA) assay; assay type: cell-based; conditions: read-out: IC50 (ug/ml) HSV
# Protocol: Vero cells (ATCC #CCL-81) are plated on 96-well tissue culture plates at 3.5x10^4 cells per 100µl tissue culture DMEM (Dulbecco's modified Eagle media) supplemented with 2% fetal bovine serum (FBS) in each well. After overnight incubation @ 37°C (in 5% CO2) and 30 minutes prior to infection with HSV- I (multiplicity of infection equal to 0.006), cells are either untreated, or treated with test compound (multiple concentrations) or reference standard drug control. After approximately 24 hours post-infection incubation @ 37°C (in 5% CO2), cells are fixed for ELISA assay. The primary antibody is murine anti-HSV glycoprotein D monoclonal primary antibody and the secondary antibody is goat anti-mouse IgG linked to β-galactosidase. Thus the extent of viral replication is determined by assessing β-galactosidase activity by quantifying the generation of the 4-methyl umbelliferone fluorescent cleavage product after addition of the methyl umbelliferyl-β-D-galactoside (Sigma #M1633) substrate on a microfluorimeter (365nm for excitation and 450nm for emission). Antiviral activity (IC50) of the test compound is determined by comparing the flourescence obtained in absence of compound to that obtained in the presence of compound.
# VZV strain Ellen = experiment: VZV antiviral (ELISA) assay; assay type: cell-based
# Outline: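 HFF cells infected with VZV Ellen at multiplicity below 0.1 overnight, then mixed infected/uninfected cells seeded with compound in DMEM/2% FBS and incubated three days at 37°C, 5% CO2.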
# [2] = read-out: IC50 ug/ml HCMV, HCMV, human foreskin fibroblasts
# [3] = Human alphaherpesvirus 3, HFF, read-out: IC50 (ug/ml) VZV, VZV strain Ellen, HFF cells, ELISA
# [4] = Human alphaherpesvirus 3, VZV strain Ellen, HFF cells, ELISA, read-out: IC50 (ug/ml) VZV
# [5] = Human alphaherpesvirus 3, HFF, read-out: % inhibition 10 ug/ml VZV
# [6] = Human alphaherpesvirus 3, HFF, read-out: IC50 (ug/ml) VZV
# [7] = Human alphaherpesvirus 3, read-out: % inhibition 10 ug/ml VZV, 10 ug/ml, VZV strain Ellen, HFF cells, ELISA
Compound,"IC50 [1, 2] [µg/mL]",IC50 ([1]; read-out: IC50 ug/ml HCMV) [µg/mL],"IC50 (HSV- I; HSV- I, Vero cells, ELISA) [µg/mL]",IC50 (VZV strain Ellen; [4]) [µg/mL],inhibition at 10 µg/mL (VZV strain Ellen; [5]) [%],IC50 (VZV strain Ellen; [6]) [µg/mL],further results
"O=C(Nc1ccc(NC(=S)Nc2cc(Cl)ccc2O)cc1)c1ccccc1F [Example 1001, N-{4-[3-(5-Chloro-2-hydroxy-phenyl)-thioureido]-phenyl}-2-fluoro-benzamide]",2.6,–,–,–,–,–,IC50 (HSV- I; Vero): 4.3 µg/mL; IC50 (VZV strain Ellen; [3]): 3.6 µg/mL
"CC(NC(=S)Nc1ccc(C(=O)Nc2ccc(F)cc2)cc1)c1ccc(F)cc1 (stereo not shown) [Example 975, N-(4-Fluoro-phenyl)-4-{3-[1-(4-fluoro-phenyl)-ethyl]-thioureido}-benzamide]",–,> 10,> 10,0.87,–,–,–
"Cc1ccc(NC(=S)Nc2ccc(NC(=O)c3ccccc3F)cc2Cl)cc1Cl [Example 459, N-{3-Chloro-4-[3-(3-chloro-4-methyl-phenyl)-thioureido]-phenyl}-2-fluoro-benzamide]",> 10,–,0.12,–,25,> 10,–
"O=C(Nc1ccc(NC(=S)Nc2cccc(OC(F)(F)F)c2)cc1)c1ccccc1F [Example 961, 2-Fluoro-N-{4-[3-(3-trifluoromethoxy-phenyl)-thioureido]-phenyl}-benzamide]",–,> 10,> 10,> 10,–,–,inhibition at 10 µg/mL (VZV strain Ellen; [7]): 53%
"O=C(Nc1ccc(NC(=S)NCCc2cccc(F)c2)cc1)c1ccccc1F [Example 552, 2-Fluoro-N-(4-{3-[2-(3-fluoro-phenyl)-ethyl]-thioureido}-phenyl)-benzamide]",–,> 0.5,> 10,> 10,–,–,–
"CC(NC(=S)Nc1ccc(NC(=O)c2cc3ccccc3cn2)cc1)c1cc2ccccc2o1 (stereo not shown) [Example 985, Isoquinoline-3-carboxylic acid {4-[3-(1-benzofuran-2-yl-ethyl)-thioureido]-phenyl}-amide]",> 10,–,–,–,–,–,IC50 (HSV- I; Vero): > 10 µg/mL; IC50 (VZV strain Ellen; [3]): 0.035 µg/mL
"COc1cc(OC)c(NC(=S)Nc2ccc(NC(=O)c3ccccc3C(=O)O)cc2)cc1Cl [Example 184, N-{4-[3-(5-Chloro-2,4-dimethoxy-phenyl)-thioureido]-phenyl}-phthalamic acid]",> 50,–,–,–,–,–,IC50 (HSV- I; Vero): > 50 µg/mL; IC50 (VZV strain Ellen; [3]): > 10 µg/mL
"CC(NC(=S)Nc1ccc(NC(=O)c2cc3ccccc3o2)cc1)c1ccc(Br)cc1 (stereo not shown) [Example 982, Benzofuran-2-carboxylic acid (4-{3-[1-(4-bromo-phenyl)-ethyl]-thioureido}-phenyl)-amide]",1.3,–,> 10,–,–,0.1,–
"O=C(Nc1ccc(NC(=S)Nc2cc(Cl)ccc2Cl)cc1)c1ccccc1F [Example 931, N-{4-[3-(2,5-Dichloro-phenyl)-thioureido]-phenyl}-2-fluoro-benzamide]",> 10,–,4,–,51,> 10,–
"COc1cccc(C(=O)Nc2ccc(NC(=S)Nc3ccc(OC)c(Cl)c3)cc2)c1 [Example 819, N-{4-[3-(3-Chloro-4-methoxy-phenyl)-thioureido]-phenyl}-3-methoxy-benzamide]",4,–,6,–,93,2.5,–
"CC(O)c1ccc(NC(=S)Nc2ccc(NC(=O)c3ccccc3F)cc2)cc1Cl (stereo not shown) [Example 865, N-(4-{3-[3-Chloro-4-(1-hydroxy-ethyl)-phenyl]-thioureido}-phenyl)-2-fluoro-benzamide]",0.3,–,4,–,52,> 10,–
"O=C(Nc1ccc(NC(=S)Nc2ccc(SC3CCCCC3)c(Cl)c2)cc1)c1ccccc1F [Example 357, N-{4-[3-(3-Chloro-4-cyclohexylsulfanyl-phenyl)-thioureido]-phenyl}-2-fluoro-benzamide]",9,–,> 10,–,44,40,–
"O=C(Nc1ccc(NC(=S)Nc2ccc3[nH]nnc3c2)cc1)c1c(F)cccc1F [Example 527, N-{4-[3-(1H-Benzotriazol-5-yl)-thioureido]-phenyl}-2,6-difluoro-benzamide]",–,> 10,> 10,> 10,–,–,inhibition at 10 µg/mL (VZV strain Ellen; [7]): 20%
"Cc1ccc(NC(=S)Nc2ccc(NC(=O)c3ccccc3F)c(C)c2)cc1Cl [Example 395, N-{4-[3-(3-Chloro-4-methyl-phenyl)-thioureido]-2-methyl-phenyl}-2-fluoro-benzamide]",3,–,0.2,–,64,> 10,–
"CC(NC(=S)Nc1ccc(NC(=O)c2ccc(O)cc2)cc1)c1ccc(F)cc1 (stereo not shown) [Example 760, N-(4-{3-[1-(4-Fluoro-phenyl)-ethyl]-thioureido}-phenyl)-4-hydroxy-benzamide]",–,> 10,> 10,> 10,–,–,–
"CC(NC(=S)Nc1ccc(NC(=O)c2nccc3ccccc23)cc1)c1ccc(F)cc1 (stereo not shown) [Example 976, Isoquinoline-1-carboxylic acid (4-{3-[1-(4-fluoro-phenyl)-ethyl]-thioureido}-phenyl)-amide]",–,–,–,–,–,–,"IC50 ug/ml HCMV ([1]; HCMV, human foreskin fibroblasts): >10 µg/mL; IC50 (HSV- I; Vero): > 10 µg/mL; IC50 (VZV strain Ellen; [3]): 0.04 µg/mL"
"COc1cc(OC)c(NC(=S)Nc2ccc(NC(=O)c3cccc(OCCN4CCOCC4)c3)cc2)cc1Cl [Example 258, N-{4-[3-(5-Chloro-2,4-dimethoxy-phenyl)-thioureido]-phenyl}-3-(2-morpholin-4-yl-ethoxy)-benzamide]",5,–,1.5,–,92,1.5,–
"Cc1ccc(NC(=S)Nc2ccc(NC(=O)c3ccccc3F)cc2)cc1F [Example 997, 2-Fluoro-N-{4-[3-(3-fluoro-4-methyl-phenyl)-thioureido]-phenyl}-benzamide]",–,4,1.9,> 10,–,–,–
"Nc1ccc(C(F)(F)F)cc1NC(=S)Nc1ccc(NC(=O)c2ccccc2F)cc1 [Example 999, N-{4-[3-(2-Amino-5-trifluoromethyl-phenyl)-thioureido]-phenyl}-2-fluoro-benzamide]",–,4,2.2,9.4,–,–,–
"O=C(Nc1ccc(NC(=S)Nc2ccc(Cl)c(C(F)(F)F)c2)cc1)c1ccccc1F [Example 244, N-{4-[3-(4-Chloro-3-trifluoromethyl-phenyl)-thioureido]-phenyl}-2-fluoro-benzamide]",> 10,–,> 10,–,18,> 10,–
"CC(N=[N+]=[N-])c1ccc(NC(=S)Nc2ccc(NC(=O)c3ccccc3F)cc2)cc1Cl (stereo not shown) [Example 492, N-(4-{3-[4-(1-Azido-ethyl)-3-chloro-phenyl]-thioureido}-phenyl)-2-fluoro-benzamide]",2,–,> 10,–,32,> 10,–
"CCCCN(C)c1cc(NC(=S)Nc2ccc(NC(=O)c3ccccc3F)cc2)cc(C(F)(F)F)c1 [Example 598, N-(4-{3-[3-(Butyl-methyl-amino)-5-trifluoromethyl-phenyl]-thioureido}-phenyl)-2-fluoro-benzamide]",> 10,–,–,–,–,–,IC50 (HSV- I; Vero): > 10 µg/mL; IC50 (VZV strain Ellen; [3]): > 10 µg/mL
"CC(NC(=S)Nc1ccc(NC(=O)c2cccc(C#N)c2)cc1)c1ccc(F)cc1 (stereo not shown) [Example 1020, 3-Cyano-N-(4-{3-[1-(4-fluoro-phenyl)-ethyl]-thioureido}-phenyl)-benzamide]",–,6.5,> 10,6.3,–,–,–
"Cc1cccc(NC(=S)Nc2ccc(NC(=O)c3ccccc3F)cc2)c1 [Example 432, 2-Fluoro-N-[4-(3-m-tolyl-thioureido)-phenyl]-benzamide]",–,10,1.6,> 10,–,–,inhibition at 10 µg/mL (VZV strain Ellen; [7]): 0%
"CC(NC(=S)Nc1ccc(NC(=O)c2cc3ccccc3o2)cc1)c1ccc(C#N)cc1 (stereo not shown) [Example 983, Benzofuran-2-carboxylic acid (4-{3-[1-(4-cyano-phenyl)-ethyl]-thioureido}-phenyl)-amide]",1.1,–,> 10,–,–,0.6,–
"CN(C)CC(=O)Nc1ccc(NC(=S)Nc2ccc(NC(=O)c3ccccc3F)cc2)cc1Cl [Example 362, N-(4-{3-[3-Chloro-4-(2-dimethylamino-acetylamino)-phenyl]-thioureido}-phenyl)-2-fluoro-benzamide]",> 10,–,> 10,–,8,> 10,–
"CC(NC(=S)Nc1ccc(NC(=O)c2ccc3ncccc3c2)cc1)c1ccc(F)cc1 (stereo not shown) [Example 990, Quinoline-6-carboxylic acid (4-{3-[1-(4-fluoro-phenyl)-ethyl]-thioureido}-phenyl)-amide]",4.4,–,8.9,–,–,3.5,–
